The text below walks through data of US20220323406A1, “METHODS AND COMPOSITIONS FOR DIFFERENTIATING STEM CELLS” (Massachusetts Institute of Technology, priority 2019, published 2022).

The test system of experiment [1] is ENR+CD organoids (ISC to Paneth cell differentiation). Kind of experiment: Primary screen: basal (non-stimulated) lysozyme secretion LYZ.NS, 2.5-D 384-well ENR+CD organoid differentiation. It counts as cell-based, mouse. Particulars: primary screen; for Z.LYZ.NS: standard z score. The source says: (§1) High-throughput screening.
The test system is the same in experiment [2]. Kind of experiment: Primary screen: CCh-stimulated lysozyme secretion LYZ.S, 2.5-D 384-well ENR+CD organoid differentiation. The experiment is classed as cell-based, mouse. Conditions: primary screen.
Text: as §1

A further experiment relates to ENR+CD organoids. Briefly: Primary screen: ATP (CellTiter-Glo 3D, CTG) cell number/viability, 2.5-D 384-well ENR+CD organoids.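 For all read-outs here: compounds given at plating and again on day 3 over a 6-day differentiation from ENR+CV stem-cell-enriched precursors, ATP measured on day 6, plate median as control.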 Particulars: primary screen; for Z.CTG: standard z score.
Where [3] appears, read: dose 0.08 uM, FC vs plate median.
[4] abbreviates: dose 0.40 uM, FC vs plate median.
Setting [5] is: dose 2.00 uM, FC vs plate median.
Where [6] appears, read: dose 10.00 uM, FC vs plate median.
Where [7] appears, read: dose 0.08 uM, FC relative to plate median.
The mark [8] stands for this setting: dose 0.40 uM, FC relative to plate median.
The mark [9] stands for this setting: dose 2.00 uM, FC relative to plate median.
Where [10] appears, read: dose 10.00 uM, FC relative to plate median.

As for HA14-1, the “Dose.FC.LYZ.NS (log2 fold change)” value in experiment [1] (dose 0.08 uM) came out at 0.121; in experiment [1] (dose 0.40 uM) it was 0.137; in experiment [1] (dose 2.00 uM), 0.154; in experiment [1] (dose 10.00 uM) it was 0.132. Besides, the “Z.LYZ.NS (standard z score)” value in experiment [1] (dose 0.08 uM) turned out to be 1.052; in experiment [1] (dose 0.40 uM), 1.195; in experiment [1] (dose 2.00 uM), 1.345; in experiment [1] (dose 10.00 uM), 1.151. The “Dose.FC.LYZ.S (log2 fold change)” value is 0.190 in experiment [2] (dose 0.08 uM), 0.316 in experiment [2] (dose 0.40 uM), 0.170 in experiment [2] (dose 2.00 uM) and 0.149 in experiment [2] (dose 10.00 uM). Further, the “Dose.FC.CTG (log2 fold change)” value in the experiment on ENR+CD organoids (dose 0.08 uM) came to 0.534; with ENR+CD organoids (dose 0.40 uM), 0.526; with ENR+CD organoids (dose 2.00 uM), 0.554; in the experiment on ENR+CD organoids (dose 10.00 uM), 0.388. For the same substance, the “Z.CTG (standard z score)” value in the experiment with ENR+CD organoids (dose 0.08 uM) came to 1.276; in the experiment on ENR+CD organoids (dose 0.40 uM) it was 1.255; in the experiment with ENR+CD organoids (dose 2.00 uM), 1.323; in the experiment with ENR+CD organoids (dose 10.00 uM), 0.926.

In the case of I-BET151 (GSK1210151A), the “Dose.FC.LYZ.NS (log2 fold change)” value is recorded as −0.116 in experiment [1] (dose 0.08 uM), −0.248 in experiment [1] (dose 0.40 uM), −0.299 in experiment [1] (dose 2.00 uM) and −0.284 in experiment [1] (dose 10.00 uM). Moreover, the “Z.LYZ.NS (standard z score)” value in experiment [1] (dose 0.08 uM) is −1.010; in experiment [1] (dose 0.40 uM) it was −2.159; in experiment [1] (dose 2.00 uM), −2.601; in experiment [1] (dose 10.00 uM), −2.473. The “Dose.FC.LYZ.S (log2 fold change)” value in experiment [2] (dose 0.08 uM) is −0.242; in experiment [2] (dose 0.40 uM), −0.344; in experiment [2] (dose 2.00 uM), −0.416; in experiment [2] (dose 10.00 uM), −0.408. Also, the “Dose.FC.CTG (log2 fold change)” value with ENR+CD organoids (dose 0.08 uM) is given as −0.016; in the experiment on ENR+CD organoids (dose 0.40 uM), −0.174; with ENR+CD organoids (dose 2.00 uM), −0.502; with ENR+CD organoids (dose 10.00 uM), −0.935. The “Z.CTG (standard z score)” value was −0.039 with ENR+CD organoids (dose 0.08 uM), −0.415 with ENR+CD organoids (dose 0.40 uM), −1.200 with ENR+CD organoids (dose 2.00 uM) and −2.233 with ENR+CD organoids (dose 10.00 uM).

Consider Ifenprodil Tartrate, for which the “Dose.FC.LYZ.NS (log2 fold change)” value was 0.056 in experiment [1] (dose 0.08 uM), −0.019 in experiment [1] (dose 0.40 uM), 0.123 in experiment [1] (dose 2.00 uM) and −0.219 in experiment [1] (dose 10.00 uM). Further, the “Z.LYZ.NS (standard z score)” value in experiment [1] (dose 0.08 uM) is reported as 0.492; in experiment [1] (dose 0.40 uM), −0.161; in experiment [1] (dose 2.00 uM) it was 1.068; in experiment [1] (dose 10.00 uM), −1.909. Further, the “Dose.FC.LYZ.S (log2 fold change)” value in experiment [2] (dose 0.08 uM) is reported as 0.050; in experiment [2] (dose 0.40 uM), 0.017; in experiment [2] (dose 2.00 uM), −0.023; in experiment [2] (dose 10.00 uM), −0.301. Further, the “Dose.FC.CTG (log2 fold change)” value with ENR+CD organoids (dose 0.08 uM) is 0.102; in the experiment on ENR+CD organoids (dose 0.40 uM), 0.111; with ENR+CD organoids (dose 2.00 uM), −0.003; in the experiment on ENR+CD organoids (dose 10.00 uM), −1.034. The “Z.CTG (standard z score)” value in the experiment with ENR+CD organoids (dose 0.08 uM) is 0.243; in the experiment with ENR+CD organoids (dose 0.40 uM) it was 0.265; with ENR+CD organoids (dose 2.00 uM), −0.008; with ENR+CD organoids (dose 10.00 uM) it was −2.471.

In the case of Maraviroc, the “Dose.FC.LYZ.NS (log2 fold change)” value in experiment [1] (dose 0.08 uM) was determined as 0.047; in experiment [1] (dose 0.40 uM), 0.041; in experiment [1] (dose 2.00 uM), 0.031; in experiment [1] (dose 10.00 uM), 0.087. Moreover, the “Z.LYZ.NS (standard z score)” value in experiment [1] (dose 0.08 uM) was 0.411; in experiment [1] (dose 0.40 uM), 0.358; in experiment [1] (dose 2.00 uM), 0.269; in experiment [1] (dose 10.00 uM), 0.759. Moreover, the “Dose.FC.LYZ.S (log2 fold change)” value turned out to be 0.054 in experiment [2] (dose 0.08 uM), 0.195 in experiment [2] (dose 0.40 uM), 0.005 in experiment [2] (dose 2.00 uM) and 0.077 in experiment [2] (dose 10.00 uM). For the same substance, the “Dose.FC.CTG (log2 fold change)” value is reported as −0.084 with ENR+CD organoids (dose 0.08 uM), 0.079 with ENR+CD organoids (dose 0.40 uM), −0.009 with ENR+CD organoids (dose 2.00 uM) and 0.139 with ENR+CD organoids (dose 10.00 uM).

For OG-L002, the Z.LYZ.NS in experiment [1] (dose 0.08 uM) is −0.001; in experiment [1] (dose 0.40 uM), −0.097; in experiment [1] (dose 2.00 uM) it was 0.182; in experiment [1] (dose 10.00 uM), −0.790. The Dose.FC.LYZ.NS is listed as 0.000 log2 fold change in experiment [1] (setting [3]), −0.011 log2 fold change in experiment [1] (setting [4]), 0.021 log2 fold change in experiment [1] (setting [5]) and −0.091 log2 fold change in experiment [1] (setting [6]). The Dose.FC.LYZ.S in experiment [2] (setting [3]) is given as 0.023 log2 fold change; in experiment [2] (setting [4]), 0.026 log2 fold change; in experiment [2] (setting [5]) it was −0.001 log2 fold change; in experiment [2] (setting [6]), −0.084 log2 fold change. Moreover, the Z.CTG worked out at 0.225 in the experiment on ENR+CD organoids (dose 0.08 uM), 0.329 in the experiment with ENR+CD organoids (dose 0.40 uM), 0.306 in the experiment with ENR+CD organoids (dose 2.00 uM) and 0.225 in the experiment on ENR+CD organoids (dose 10.00 uM). The Dose.FC.CTG in the experiment with ENR+CD organoids (setting [3]) was 0.094 log2 fold change; in the experiment on ENR+CD organoids (setting [4]) it was 0.138 log2 fold change; in the experiment on ENR+CD organoids (setting [5]), 0.128 log2 fold change; in the experiment on ENR+CD organoids (setting [6]) it was 0.094 log2 fold change.

With S3I-201, the Dose.FC.LYZ.NS in experiment [1] (setting [7]) is on record as 0.051 log2 fold change; in experiment [1] (setting [8]), 0.061 log2 fold change; in experiment [1] (setting [9]), 0.024 log2 fold change; in experiment [1] (setting [10]), −0.016 log2 fold change. Further, the Z.LYZ.NS in experiment [1] (dose 0.08 uM) was 0.445; in experiment [1] (dose 0.40 uM) it was 0.527; in experiment [1] (dose 2.00 uM), 0.212; in experiment [1] (dose 10.00 uM) it was −0.143. Further, the Dose.FC.LYZ.S is recorded as 0.033 log2 fold change in experiment [2] (setting [7]), 0.157 log2 fold change in experiment [2] (setting [8]), −0.004 log2 fold change in experiment [2] (setting [9]) and −0.052 log2 fold change in experiment [2] (setting [10]). Moreover, the Dose.FC.CTG with ENR+CD organoids (setting [7]) is 0.321 log2 fold change; in the experiment with ENR+CD organoids (setting [8]), 0.160 log2 fold change; in the experiment with ENR+CD organoids (setting [9]), 0.079 log2 fold change; in the experiment with ENR+CD organoids (setting [10]), −0.140 log2 fold change. Besides, the Z.CTG in the experiment on ENR+CD organoids (dose 0.08 uM) is 0.766; in the experiment on ENR+CD organoids (dose 0.40 uM) it was 0.382; in the experiment on ENR+CD organoids (dose 2.00 uM), 0.188; with ENR+CD organoids (dose 10.00 uM) it was −0.334.

Consider SN-38, for which the Dose.FC.LYZ.NS in experiment [1] (setting [7]) was −0.275 log2 fold change; in experiment [1] (setting [8]), −0.288 log2 fold change; in experiment [1] (setting [9]), −0.305 log2 fold change; in experiment [1] (setting [10]), −0.299 log2 fold change. The Z.LYZ.NS in experiment [1] (dose 0.08 uM) is −2.391; in experiment [1] (dose 0.40 uM), −2.505; in experiment [1] (dose 2.00 uM), −2.655; in experiment [1] (dose 10.00 uM), −2.606. Moreover, the Dose.FC.LYZ.S is −0.419 log2 fold change in experiment [2] (setting [7]), −0.402 log2 fold change in experiment [2] (setting [8]), −0.391 log2 fold change in experiment [2] (setting [9]) and −0.404 log2 fold change in experiment [2] (setting [10]). Also, the Dose.FC.CTG was −0.720 log2 fold change with ENR+CD organoids (setting [7]), −1.091 log2 fold change in the experiment with ENR+CD organoids (setting [8]), −1.226 log2 fold change in the experiment on ENR+CD organoids (setting [9]) and −1.166 log2 fold change with ENR+CD organoids (setting [10]). The Z.CTG with ENR+CD organoids (dose 0.08 uM) is −1.720; in the experiment on ENR+CD organoids (dose 0.40 uM), −2.606; in the experiment with ENR+CD organoids (dose 2.00 uM), −2.929; in the experiment on ENR+CD organoids (dose 10.00 uM), −2.785.

For the substance SNS-314 Mesylate, the Dose.FC.LYZ.NS in experiment [1] (setting [7]) is recorded as −0.071 log2 fold change; in experiment [1] (setting [8]) it was −0.059 log2 fold change; in experiment [1] (setting [9]), −0.128 log2 fold change; in experiment [1] (setting [10]), −0.127 log2 fold change. Moreover, the Z.LYZ.NS is −0.620 in experiment [1] (dose 0.08 uM), −0.515 in experiment [1] (dose 0.40 uM), −1.111 in experiment [1] (dose 2.00 uM) and −1.109 in experiment [1] (dose 10.00 uM). The Dose.FC.LYZ.S in experiment [2] (setting [7]) is recorded as −0.115 log2 fold change; in experiment [2] (setting [8]) it was −0.103 log2 fold change; in experiment [2] (setting [9]), −0.133 log2 fold change; in experiment [2] (setting [10]), −0.198 log2 fold change. In addition, the Dose.FC.CTG is −0.666 log2 fold change in the experiment on ENR+CD organoids (setting [7]), −0.777 log2 fold change in the experiment with ENR+CD organoids (setting [8]), −0.478 log2 fold change in the experiment with ENR+CD organoids (setting [9]) and −0.620 log2 fold change in the experiment with ENR+CD organoids (setting [10]). Besides, the Z.CTG is −1.591 in the experiment with ENR+CD organoids (dose 0.08 uM), −1.857 in the experiment with ENR+CD organoids (dose 0.40 uM), −1.142 in the experiment on ENR+CD organoids (dose 2.00 uM) and −1.480 in the experiment with ENR+CD organoids (dose 10.00 uM).
